One block for each compound: values may come before it.
How the values were obtained:
recombinant LSD1 = biological target: T1, recombinant LSD1 (Homo sapiens, UniProt O60341); test: LSD1 horseradish peroxidase coupled enzyme assay, time-dependent inactivation kinetics; type: biochemical
T1 construct: made in house
Method: For example, compounds may be assayed for their ability to inhibit the enzymatic activity of recombinant LSD1 utilizing a horseradish peroxidase coupled assay for the detection of hydrogen peroxide formed in the demethylase catalytic cycle.
LSD1 overexpression, purification and horseradish peroxidase coupled enzyme assay were performed as previously described.
Inhibitors were prepared as 100 mM stocks in dimethylsulfoxide (DMSO) before dilution into assay reagents at appropriate concentrations. Progress curves for time-dependent enzyme inactivation were fit to Equation 1
Product=(vi/kobs)*(1−exp^−kobs*t) (1)
to obtain values of kobs as a function of inhibitor concentration, which were then fit to Equation 2 to obtain values of kinact and K1.

MCF7 cells [1] = test: Cell cycle analysis (BrdU/PI flow cytometry); type: cell-based; conditions: MCF7, 250 μM, 24 hours
Method: MCF7 cells were seeded at 400,000 cells per well in 6 well plates in DMEM/F12 (Invitrogen) containing 8% FBS, 1 mM sodium pyruvate and 0.1 mM non-essential amino acids. After 24 h, the cells were treated with fresh media containing the 250 μM inhibitor. After 48 h of treatment, the cells were pulsed for 2 h with BrdU (10 μg mL^−1). The cells were trypsinized and collected using cold IFA buffer (3 mL) (4% charcoal stripped FBS, 150 mM sodium chloride, 10 mM HEPES, pH 7.5). They were washed with PBS, resuspended in 1 mL of PBS and fixed with 70% ethanol. The cells were incubated for 30 min on ice and then stored at −20° C. The cells were washed with PBS containing 0.5% BSA. The pellet was denatured with 2 M hydrochloric acid containing 0.5% BSA. The residual acid was neutralized using 0.1M sodium borate, pH 8.5. The cell pellet was resuspended in dilute anti-BrdU-alexa fluor-488 antibody (Molecular Probes) (PBS+0.5% Tween 20+0.5% BSA+5% antibody). After washing excess away, the cell pellets were resuspended in PI+RNase A (10 μg mL^−1 propidium iodide and 10 μg mL^−1 RNase A in PBS). The cells were vortexed and analyzed using flow cytometry (Accuri C6).

[2] = test system: histone H3K4-Me2 and H3K9-Me2 in MCF7 cells; test: Western blot of global histone dimethylation; type: cell-based; conditions: inhibitors 250 μM for 24 h
Method: (§1) MCF7 cells or MDA-MB 231 cells were seeded in six-well plates. Cells were treated after 48 h with inhibitor for 24 h. Whole-cell extracts were isolated using RIPA buffer [50 mM Tris (pH 8.0), 200 mM NaCl, 1.5 mM MgCl2, 1% Nonidet P-40 (NP40), 1 mM EGTA, 10% glycerol, 50 mM NaF, 2 mM Na3VO4 and 1× protease inhibitor mixture]. Crude histones were extracted from the lysate pellet by resuspending in water and precipitating with 25% TCA. The pellets were washed with acetone and then resuspended. Concentration of whole-cell lysate or resuspended histones was determined using Bio-Rad Bradford reagent using BSA for standard curve. For each sample, proteins were resolved by SDS-PAGE and transferred to a PVDF membrane (Biorad).
(§2) H3K4-Me2 was detected using polyclonal rabbit antibody (Millipore 07-030). H3K9-Me2 was detected using a monoclonal mouse antibody (Abcam ab1220). Total H3 was detected using a polyclonal rabbit antibody (Abcam ab1791). LSD1 was detected using a monoclonal rabbit antibody (Millipore 05-939) or polyclonal rabbit antibody (Abcam ab17721). ERα (D12) was detected using monoclonal mouse antibody (Santa Cruz sc-8005). GAPDH was detected using polyclonal goat antibody (Santa Cruz sc-20357). Secondary antibodies were purchased from Bio-Rad.

[3] = test system: histone H3K4-Me2 and H3K9-Me2 in MDA-MB-231 cells; test: Western blot of global histone dimethylation; type: cell-based; conditions: inhibitors 250 μM for 24 h
Method: as §1, §2

MCF7 cells [4] = conditions: MCF7, 24 h, up to 500 μM
MDA-MB-231 cells [5] = conditions: MDA-MB-231, 24 h, up to 500 μM
HCC1143 cells = conditions: HCC1143, 250 μM every other day for 10 days
Method: (§3) After 2 d, the cells were treated with fresh media containing the inhibitors at the concentrations indicated. Every 2 d, for a total of 6 or 10 d, respectively, the cells were treated similarly. […] Data are presented as the mean±SEM for triplicate wells in one representative experiment.

HCC1937 cells = conditions: HCC1937, 250 μM every other day for 10 days
Method: as §3

MDA-MB-231 cells [6] = test: Cell proliferation assay (total DNA content); type: cell-based; conditions: MDA-MB-231, 250 μM every other day for 10 days
Method: as §3

MCF7 cells [7] = test: Cell proliferation assay (total DNA content); type: cell-based; conditions: MCF7, 250 μM every other day for 10 days
Method: as §3

MAO B = biological target: T2, MAO B (Homo sapiens, UniProt P27338); test: Inhibition kinetics of MAO B
T2 sequence (P27338 1-520): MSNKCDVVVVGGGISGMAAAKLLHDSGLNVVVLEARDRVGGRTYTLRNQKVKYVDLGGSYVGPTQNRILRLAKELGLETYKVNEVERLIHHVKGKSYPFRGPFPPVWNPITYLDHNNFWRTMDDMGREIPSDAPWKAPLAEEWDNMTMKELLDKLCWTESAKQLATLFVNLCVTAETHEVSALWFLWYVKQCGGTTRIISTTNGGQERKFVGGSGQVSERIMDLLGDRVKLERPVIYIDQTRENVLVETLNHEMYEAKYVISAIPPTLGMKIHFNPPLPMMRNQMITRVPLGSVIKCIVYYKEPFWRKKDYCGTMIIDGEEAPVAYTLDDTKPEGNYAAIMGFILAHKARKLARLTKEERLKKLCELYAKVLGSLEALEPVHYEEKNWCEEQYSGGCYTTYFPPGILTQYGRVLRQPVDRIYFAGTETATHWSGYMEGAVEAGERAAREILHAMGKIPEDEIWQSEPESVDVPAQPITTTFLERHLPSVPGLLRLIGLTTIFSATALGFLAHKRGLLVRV

kinact/KI (recombinant LSD1; LSD1 inactivation): < 0.3 M⁻¹ s⁻¹
Structure (SMILES): C#CCNCc1ccc(Oc2ccccc2)cc1 [Compound 2c]

Ki (recombinant LSD1; LSD1 inactivation): 540 ± 160 µM | kinact (recombinant LSD1; LSD1 inactivation): 0.022 ± 0.003 s⁻¹
Structure (SMILES): CC(C)(C)c1ccc(Sc2ccc(C3CC3N)cc2)cc1 (stereo not shown) [Compound 1f]

Structure (SMILES): CCOc1ccc(C2CC2N)cc1 (stereo not shown) [Compound 1b]
kinact (recombinant LSD1; LSD1 inactivation): 0.02 ± 0.002 s⁻¹

concentration needed to inhibit LSD1 in vitro (recombinant LSD1): greater than 5 mM | kinact/KI (recombinant LSD1; LSD1 inactivation): < 0.2 M⁻¹ s⁻¹ | enzymatic activity remaining (recombinant LSD1; concentrations as high as 10 mM, prolonged exposure): greater than 70%
Structure (SMILES): C#CCN(C)Cc1ccccc1 [pargyline]

Structure (SMILES): NC1CC1c1cccc(OCc2ccccc2)c1 (stereo not shown) [Compound 1e]
kinact (recombinant LSD1; LSD1 inactivation): 0.025 ± 0.005 s⁻¹

Structure (SMILES): N[C@@H]1C[C@H]1c1ccccc1 (relative stereo) [Compound 2-PCPA, trans-2-Phenylcyclopropylamine]
cell cycle arrest (accumulation in G1 and G2/M, decrease in S phase) (MCF7 cells [1]): growth arrested | level of global histone H3K4-Me2 [2]: increased | level of global histone H3K9-Me2 [2]: significant changes were not observed | level of global histone H3K4-Me2 [3]: robust increases | level of global histone H3K9-Me2 [3]: robust increases | induction of apoptosis (MCF7 cells [4]): did not induce apoptosis | induction of apoptosis (MDA-MB-231 cells [5]): did not induce apoptosis | cell proliferation (HCC1143 cells): significantly decreased cell proliferation | cell proliferation (HCC1937 cells): significantly decreased cell proliferation | cell proliferation (MDA-MB-231 cells [6]): significantly decreased cell proliferation | cell proliferation (MCF7 cells [7]): significantly decreased cell proliferation

kinact/KI (recombinant LSD1; LSD1 inactivation): < 0.6 M⁻¹ s⁻¹
Structure (SMILES): C#CCNCc1ccccc1 [Compound 2a]

kinact/KI (recombinant LSD1; LSD1 inactivation): < 0.8 M⁻¹ s⁻¹
Structure (SMILES): C#CCNCc1ccc(OC(C)C)cc1 [Compound 2b]

kinact (MAO B): 0.032 ± 0.002 s⁻¹
Structure (SMILES): NC1CC1c1ccc(Oc2ccccc2)cc1 (stereo not shown) [Compound 1d]

Reference: patent US20140343118A1, “METHODS OF TREATMENT USING ARYLCYCLOPROPYLAMINE COMPOUNDS” (Duke University, priority 2013, published 2014)
